In patent US20260284214A1, “EXATECAN DERIVATIVE AND ANTIBODY-DRUG CONJUGATE THEREOF” (priority 2023, published 2026):
Like-named read-outs stand apart in the source and are kept apart here. Marks after values point to notes of the source that are not given here.

Key:
BxPC-3 cells = assay: Cell inhibitory activity experiment of cytotoxic drug (CellTiter-Glo, 72 hours); assay type: cell-based, human
Method: (§1) Human pancreatic adenocarcinoma cells BxPC-3 (ATCC, article number: CRL-1687) and human pharyngeal squamous cell carcinoma cells FaDu (ATCC, article number: HTB-43) were washed with PBS, then the cells were digested with 0.25% Trypsin-EDTA trypsin for about 3 minutes, and the digestion was terminated with a complete cell culture medium. The cells were centrifuged at 1000 rpm for 5 minutes, the supernatant was discarded, and the cells were resuspended with a complete cell culture medium, counted by a cell counter, and adjusted to a required density. Each well was added with 50 μL of the cell suspension according to 3000 cells per well, and the cell plate was placed into a 5% CO2 cell incubator at 37° C. to incubate the cells for 12-16 hours.
(§2) The cell plate was taken out of the incubator to observe a cell adhesion state, and after cell adhesion, each well was added with 50 μL of the sample (starting from 10 μM, diluted 5 times, 9 concentrations), shaken gently, and then placed into an incubator to incubate the cells for 72 hours. Each well was added with a Cell Titer-GLO™ (Promega, article number: G7572) working solution according to 100 μL/well and shaken gently to lyse the cells, and the plate was read on a microplate reader.
(§3) Data analysis: a graph was made by GraphPad Prism 7.0 software with a Log value of a sample concentration as an abscissa and Cytotoxicity % as an ordinate, and data were subjected to Nonlinear regression (curve fit) analysis to obtain an IC50 value of each compound.

FaDu cells = assay: as above; assay type: cell-based, human
Method: as §1, §2, §3

[1] = In-vivo pharmacokinetics of compounds in SD rats; details: intravenous; for clearance / half-life / AUC(0-t) at 8 h / Vd: rat, plasma; for AUC(0-t) at 8 h: read-out: AUC0-8 h; for Vd: read-out: Vz
Method: SD rats were taken as test animals to study in-vivo pharmacokinetics behaviors after injection administration of the compounds of the present disclosure to male and female SD rats at dosages of 1 mg/kg and 3 mg/kg.
• Species: male and female SD rats (2 female rats and 2 male rats/group) • Grade: SPF grade • Weight: about 200 g • Source: Hunan SJA Laboratory Animal Co., Ltd.
Male and female SD rats were injected with the test sample solution, and Compound 2 of the example and the Dxd were given in a dosage of 1 mg/kg and a dosage volume of 4 mL/kg. Compound 3 of the example and the Dxd were given in a dosage of 3 mg/kg and a dosage volume of 5 mL/kg.
Preparation of test sample solution: the test sample was dissolved with a solvent (10% DMSO-60% PEG400-30% (20% HP-β-CD-water)), and DMSO, PEG 400 and 20% HP-β-CD-water were added sequentially during preparation.
0 before administration, and 5 minutes, 15 minutes, 0.5 hours, 1 hour, 2 hours, 3 hours, 5 hours and 8 hours after administration.
0.2 mL of blood was collected and placed into an EDTA-2K anticoagulant tube. The anticoagulant tube was turned upside down gently to fully mix the anticoagulant (EDTA-2K) with the blood, and then immediately placed into wet ice, and plasma was centrifuged for separation within 1 hour after blood collection at 4° C. and 6800 g for 6 minutes. After centrifugation, the plasma was separated and stored in an ultra-low-temperature refrigerator as soon as possible until sample analysis.

SD rats = assay: Toxicity comparison after repeated administration to SD rats for 7 days (hematology); assay type: in vivo; details: 0.1 mg/kg iv for 7 consecutive days, end of study
Method: SD rats were taken as test animals to study toxic reactions after intravenous injection of the compounds of the present disclosure to male and female SD rats at a dosage of 0.1 mg/kg for 7 consecutive days.
• Species: male and female SD rats (5 female rats and 5 male rats/group) • Grade: SPF grade • Weight: ♂ 252.0-287.4 g and ♀ 185.7-224.3 g • Age: 8-12 weeks • Source: Zhejiang Vital River Laboratory Animal Technology Co., Ltd.
Male and female SD rats were injected with the test sample solution, and Compound 2 of the example and the Dxd were given in a dosage of 0.1 mg/kg and a dosage volume of 10 mL/kg.
Preparation of test sample solution: the test sample was dissolved with a solvent (5% DMSO+95% Solutol HS-15 in water).
About 0.2 mL of blood was collected from the jugular sinus of the animals into an anticoagulant tube containing an anticoagulant (EDTA-K2) on D3 after administration, and all to-be-dissected animals were fasted for about 12 hours on the eve of D8 before dissection. Dying animals were euthanized, about 2 mL of blood was collected from abdominal aorta into an anticoagulant tube containing an anticoagulant (EDTA-K2) at the time of dissection, and hematological indexes were detected by a Sysmex XN-1000 hemocytometer. Specific detection indexes were as follows.

## C=CCN(CCO)C(=O)N[C@H]1CCc2c(C)c(F)cc3nc4c(c1c23)Cn1c-4cc2c(c1=O)COC(=O)[C@]2(O)CC [Example 3, 1-allyl-3-((1S,9S)-9-ethyl-5-fluoro-9-hydroxy-4-methyl-10,13-dioxo-2,3,9,10,13,15-hexahydro-1H,12H-benzo[de]pyrano[3′,4′:6,7]indolizino[1,2-b]quinolin-1-yl)-1-(2-hydroxyethyl)urea]
BxPC-3 cells; Homo sapiens
  IC50: 0.76 nM
FaDu cells; Homo sapiens
  IC50: 1.09 nM
[1]; 3 mg/kg
  clearance: 124 mL/min/kg
  half-life: 1.73 h
  AUC(0-t) at 8 h: 405 ng·h/mL
  Vd: 18.7 L/kg

## CC[C@@]1(O)C(=O)OCc2c1cc1n(c2=O)Cc2c-1nc1cc(F)c(C)c3c1c2[C@@H](NC(=O)CO)CC3 [Dxd]
[1]; 1 mg/kg
  clearance: 69.2 mL/min/kg
  half-life: 1.3 h
  AUC(0-t) at 8 h: 240 ng·h/mL
  Vd: 7.96 L/kg
[1]; 3 mg/kg
  clearance: 65.7 mL/min/kg
  half-life: 1.96 h
  AUC(0-t) at 8 h: 760 ng·h/mL
  Vd: 10.9 L/kg
SD rats; ♀ SD rats
  #EOS, change compared with the control group: −84.44%**
  #LUC, change compared with the control group: −66.9%**
  #MONO, change compared with the control group: −71.3%**
  #NEUT, change compared with the control group: −66.1%*
  #RETIC, change compared with the control group: −96.9%**
  HCT, change compared with the control group: −15.8%**
  HGB, change compared with the control group: −12.7%**
  MCHC, change compared with the control group: 3.6%**
  RBC, change compared with the control group: −13.4%**
  WBC, change compared with the control group: −47.6%*
SD rats; ♂ SD rats
  #BASO, change compared with the control group: −82.1%*
  #EOS, change compared with the control group: −70.2%*
  #MONO, change compared with the control group: −77.2%**
  #NEUT, change compared with the control group: −66.9%**
  #RETIC, change compared with the control group: −95.5%*
  HCT, change compared with the control group: −15.7%**
  HGB, change compared with the control group: −12.8%**
  MCHC, change compared with the control group: 3.2%**
  RBC, change compared with the control group: −15.3%**

## C#CCN(CCO)C(=O)N[C@H]1CCc2c(C)c(F)cc3nc4c(c1c23)Cn1c-4cc2c(c1=O)COC(=O)[C@]2(O)CC [Example 2]
BxPC-3 cells
  IC50: 0.96 nM
FaDu cells
  IC50: 1.49 nM
[1]; 1 mg/kg
  AUC0-8 h: 77.9 ng·h/mL
  CL: 12700 mL/min/kg
  T1/2: 1.59 h
  Vz: 29 L/kg
SD rats; ♀ SD rats
  #MONO, change compared with the control group: −54.1%**
  #RETIC, change compared with the control group: −86.4%**
  HCT, change compared with the control group: −12.0%**
  HGB, change compared with the control group: −10.7%**
  RBC, change compared with the control group: −10.9%**
SD rats; ♂ SD rats
  #EOS, change compared with the control group: −71.4%**
  #MONO, change compared with the control group: −68.3%**
  #NEUT, change compared with the control group: −72.2%**
  #RETIC, change compared with the control group: −87.3%**
